In ChEMBL document CHEMBL1137133, “Defining determinant molecular properties for the blockade of the apamin-sensitive SKCa channel in guinea-pig hepatocytes: the influence of polarizability and molecular geometry” (Bioorg Med Chem Lett, 2004):

assay: Inhibition of I-apamin-sensitive SKCa channel of guinea-pig hepatocytes; 0.14+/-0.01; format: cell-based, Cavia porcellus; conditions: hepatocyte

In the case of `c1ccc2c(c1)c1cc[n+]2CCCCC[n+]2ccc(c3ccccc32)NCCCCCN1`, the Ki is reported as 0.14 nM.

assay: Inhibition of apamin-sensitive SKCa channel of guinea-pig hepatocytes; format: cell-based, Cavia porcellus; conditions: hepatocyte

Point of comparison: `Nc1c2ccccc2nc2ccccc12` [AMINACRINE], IC50 120 µM. Against it:
- COc1ccc(CC2c3cc(OC)c(OC)cc3CC[N+]2(C)CCC(=O)OCCCCCOC(=O)CC[N+]2(C)CCc3cc(OC)c(OC)cc3C2Cc2ccc(OC)c(OC)c2)cc1OC (stereo not given) — 40-fold lower, 3 µM
- COc1cc2c3cc1Oc1cc(ccc1O)C[C@@H]1c4c(cc(OC)c(O)c4Oc4ccc(cc4)C[C@@H]3N(C)CC2)CC[N+]1(C)C — 40-fold lower, 3 µM
- C=CC1CN2CCC1CC2[C@H](O)c1ccnc2ccccc12 (stereo not given in full) — 3.5-fold higher, 420 µM
- C=C[C@H]1CN2CC[C@H]1C[C@@H]2[C@@H](O)c1ccnc2ccccc12 [CINCHONINE] — 3.1-fold higher, 370 µM
- C[N+](C)(C)CCCCCCCCCC[N+](C)(C)C [DECAMETHONIUM] — 3.8-fold higher, 450 µM
- Cc1cc(N)c2ccccc2[n+]1CCCCCCCCCC[n+]1c(C)cc(N)c2ccccc21 [DEQUALINIUM CHLORIDE] — 71-fold lower, 1.7 µM
- CCCCOc1cc(C(=O)NCCN(CC)CC)c2ccccc2n1 [DIBUCAINE] — 3.9-fold higher, 470 µM
- CC[N+](CC)(CC)CCOc1cccc(OCC[N+](CC)(CC)CC)c1OCC[N+](CC)(CC)CC [GALLAMINE] — 10-fold lower, 12 µM
- C[N+](C)(C)CCCCCC[N+](C)(C)C [HEXAMETHONIUM CHLORIDE] — 17-fold higher, 2000 µM
- CC(=O)O[C@H]1C[C@@H]2CC[C@@H]3[C@H](CC[C@@]4(C)[C@H]3C[C@H]([N+]3(C)CCCCC3)[C@@H]4OC(C)=O)[C@@]2(C)C[C@@H]1[N+]1(C)CCCCC1 [PANCURONIUM] — 34-fold lower, 3.5 µM
- COc1cc(NC(C)CCCN)c2ncccc2c1 (stereo not given) [PRIMAQUINE] — 8.1-fold higher, 970 µM
- CCN(CC)CCCC(C)Nc1c2ccc(Cl)cc2nc2ccc(OC)cc12 (stereo not given) [QUINACRINE] — 1.6-fold lower, 73 µM
- C=C[C@H]1CN2CC[C@H]1C[C@@H]2[C@@H](O)c1ccnc2ccc(OC)cc12 [QUINIDINE] — 2-fold higher, 240 µM
- C=C[C@H]1CN2CC[C@H]1C[C@H]2[C@H](O)c1ccnc2ccc(OC)cc12 [QUININE] — within 1.5-fold, 150 µM
- O=C1C[C@@H]2OCC=C3CN4CC[C@]56c7ccccc7N1[C@H]5[C@H]2[C@H]3C[C@H]46 [STRYCHNINE] — 1.6-fold higher, 190 µM
- CC[N+](CC)(CC)CC [TETRYLAMMONIUM] — 66-fold higher, 7900 µM
- c1ccc2c(c1)c1cc[n+]2Cc2ccc(cc2)Cc2ccc(cc2)C[n+]2ccc(c3ccccc32)NCCCCCCCCCCN1 [UCL-1530] — 46-fold lower, 2.6 µM
- CC(=O)O[C@H]1C[C@@H]2CC[C@@H]3[C@H](CC[C@@]4(C)[C@H]3C[C@H]([N+]3(C)CCCCC3)[C@@H]4OC(C)=O)[C@@]2(C)C[C@@H]1N1CCCCC1 [VECURONIUM] — 27-fold lower, 4.5 µM
